Test results from patent US20150038438A1, “ANTIBACTERIAL COMPOUNDS AND METHODS FOR USE” (PTC THERAPEUTICS, INC., priority 2011, published 2015).

Columns and labels:
Assay in all cases: Antibacterial activity, microbroth dilution method (MIC)
[1] = tested on: control Gram-negative E. coli 25922 strain; assay type: cell-based, Escherichia coli; settings: Escherichia coli
In short: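 MIC (μg/mL) is taken as the lowest concentration with no macroscopically visible growth. Strains tested by microbroth dilution: Gram-positive S. aureus 29213, control Gram-negative E. coli 25922, and super-sensitive E. coli BAS849.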

[2] = tested on: Gram-positive Staphylococcus aureus (S. aureus) 29213; assay type: cell-based; settings: Staphylococcus aureus, Gram-positive S. aureus 29213
In short: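 Each strain is exposed to test compound in a microbroth dilution series; visible growth is scored macroscopically, and the lowest growth-free concentration is recorded as MIC in μg/mL.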

[3] = tested on: super sensitive Gram-negative Escherichia coli (E. coli) BAS849; assay type: cell-based; settings: Escherichia coli; super sensitive Gram-negative E. coli BAS849; microbroth dilution; read-out: MIC, E. coli BAS849
In short: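 Lowest concentration stopping macroscopically visible growth under test conditions, by broth microdilution, defines the MIC (μg/mL).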

| SMILES | MIC [1] | MIC [2] | MIC [3] |
| --- | --- | --- | --- |
| CCCCCCCCNCc1cc2cc3c(cc2n1C)CCCc1c-3[nH]c(=O)c(C(=O)O)c1O.Cl [Cpd 140, 4-hydroxy-9-methyl-10-((octylamino)methyl)-2-oxo-1,2,5,6,7,9-hexahydropyrido[3′,2′:6,7]cyclohepta[1,2-f]indole-3-carboxylic acid hydrochloride] | 12.5 to 150 µg/mL | 1 to 3.5 µg/mL | < 1 µg/mL |
| CCCCCCCCCNCc1cc2cc3c(cc2n1C)CCCc1c-3[nH]c(=O)c(C(=O)O)c1O.Cl [Cpd 141, 4-hydroxy-9-methyl-10-((nonylamino)methyl)-2-oxo-1,2,5,6,7,9-hexahydropyrido[3′,2′:6,7]cyclohepta[1,2-f]indole-3-carboxylic acid hydrochloride] | 12.5 to 150 µg/mL | 3.5 to 12.5 µg/mL | 1 to 3.5 µg/mL |
| CN(C)CCNCc1cc2cc3c(cc2n1C)CCCc1c-3[nH]c(=O)c(C(=O)O)c1O.Cl.Cl [Cpd 142, 10-(((2-(dimethylamino)ethyl)amino)methyl)-4-hydroxy-9-methyl-2-oxo-1,2,5,6,7,9-hexahydropyrido[3′,2′:6,7]cyclohepta[1,2-f]indole-3-carboxylic acid dihydrochloride] | 3.5 to 12.5 µg/mL | 12.5 to 150 µg/mL | < 1 µg/mL |
| CNCCNCc1cc2cc3c(cc2n1C)CCCc1c-3[nH]c(=O)c(C(=O)O)c1O.Cl.Cl [Cpd 143, 4-hydroxy-9-methyl-10-(((2-(methylamino)ethyl)amino)methyl)-2-oxo-1,2,5,6,7,9-hexahydropyrido[3′,2′:6,7]cyclohepta[1,2-f]indole-3-carboxylic acid dihydrochloride] | 12.5 to 150 µg/mL | 12.5 to 150 µg/mL | 3.5 to 12.5 µg/mL |
| Cl.Cl.Cn1c(CNCCN)cc2cc3c(cc21)CCCc1c-3[nH]c(=O)c(C(=O)O)c1O [Cpd 144, 10-(((2-aminoethyl)amino)methyl)-4-hydroxy-9-methyl-2-oxo-1,2,5,6,7,9-hexahydropyrido[3′,2′:6,7]cyclohepta[1,2-f]indole-3-carboxylic acid dihydrochloride] | 12.5 to 150 µg/mL | 12.5 to 150 µg/mL | 3.5 to 12.5 µg/mL |
| CN(C)CCN(C)Cc1cc2cc3c(cc2n1C)CCCc1c-3[nH]c(=O)c(C(=O)O)c1O.Cl.Cl [Cpd 145, 10-(((2-(dimethylamino)ethyl)(methyl)amino)methyl)-4-hydroxy-9-methyl-2-oxo-1,2,5,6,7,9-hexahydropyrido[3′,2′:6,7]cyclohepta[1,2-f]indole-3-carboxylic acid dihydrochloride] | 12.5 to 150 µg/mL | 12.5 to 150 µg/mL | < 1 µg/mL |
| CCC(C)NCc1cc2cc3c(cc2n1C)CCCc1c-3[nH]c(=O)c(C(=O)O)c1O.Cl (stereo not drawn) [Cpd 146, 10-((sec-butylamino)methyl)-4-hydroxy-9-methyl-2-oxo-1,2,5,6,7,9-hexahydropyrido[3′,2′:6,7]cyclohepta[1,2-f]indole-3-carboxylic acid hydrochloride] | < 1 µg/mL | 3.5 to 12.5 µg/mL | < 1 µg/mL |
| Cl.Cn1c(CNCCO)cc2cc3c(cc21)CCCc1c-3[nH]c(=O)c(C(=O)O)c1O [Cpd 147, 4-hydroxy-10-(((2-hydroxyethyl)amino)methyl)-9-methyl-2-oxo-1,2,5,6,7,9-hexahydropyrido[3′,2′:6,7]cyclohepta[1,2-f]indole-3-carboxylic acid hydrochloride] | 3.5 to 12.5 µg/mL | 12.5 to 150 µg/mL | < 1 µg/mL |
| COCCNCc1cc2cc3c(cc2n1C)CCCc1c-3[nH]c(=O)c(C(=O)O)c1O.Cl [Cpd 148, 4-hydroxy-10-(((2-methoxyethyl)amino)methyl)-9-methyl-2-oxo-1,2,5,6,7,9-hexahydropyrido[3′,2′:6,7]cyclohepta[1,2-f]indole-3-carboxylic acid hydrochloride] | < 1 µg/mL | 12.5 to 150 µg/mL | < 1 µg/mL |
| CN(CCO)Cc1cc2cc3c(cc2n1C)CCCc1c-3[nH]c(=O)c(C(=O)O)c1O.Cl [Cpd 149, 4-hydroxy-10-(((2-hydroxyethyl)(methyl)amino)methyl)-9-methyl-2-oxo-1,2,5,6,7,9-hexahydropyrido[3′,2′:6,7]cyclohepta[1,2-f]indole-3-carboxylic acid hydrochloride] | 3.5 to 12.5 µg/mL | 3.5 to 12.5 µg/mL | < 1 µg/mL |
| COCC(C)NCc1cc2cc3c(cc2n1C)CCCc1c-3[nH]c(=O)c(C(=O)O)c1O.Cl (stereo not drawn) [Cpd 150, 4-hydroxy-10-(((1-methoxypropan-2-yl)amino)methyl)-9-methyl-2-oxo-1,2,5,6,7,9-hexahydropyrido[3′,2′:6,7]cyclohepta[1,2-f]indole-3-carboxylic acid hydrochloride] | 1 to 3.5 µg/mL | 3.5 to 12.5 µg/mL | < 1 µg/mL |
| CC(CO)NCc1cc2cc3c(cc2n1C)CCCc1c-3[nH]c(=O)c(C(=O)O)c1O.Cl (stereo not drawn) [Cpd 151, 4-hydroxy-10-(((1-hydroxypropan-2-yl)amino)methyl)-9-methyl-2-oxo-1,2,5,6,7,9-hexahydropyrido[3′,2′:6,7]cyclohepta[1,2-f]indole-3-carboxylic acid hydrochloride] | 1 to 3.5 µg/mL | 12.5 to 150 µg/mL | 3.5 to 12.5 µg/mL |
| Cl.Cl.Cn1c(CNCCN2CCCC2)cc2cc3c(cc21)CCCc1c-3[nH]c(=O)c(C(=O)O)c1O [Cpd 152, 4-hydroxy-9-methyl-2-oxo-10-(((2-(pyrrolidin-1-yl)ethyl)amino)methyl)-1,2,5,6,7,9-hexahydropyrido[3′,2′:6,7]cyclohepta[1,2-f]indole-3-carboxylic acid dihydrochloride] | 3.5 to 12.5 µg/mL | 12.5 to 150 µg/mL | < 1 µg/mL |
| C=CCNCc1cc2cc3c(cc2n1C)CCCc1c-3[nH]c(=O)c(C(=O)O)c1O.Cl [Cpd 153, 10-((allylamino)methyl)-4-hydroxy-9-methyl-2-oxo-1,2,5,6,7,9-hexahydropyrido[3′,2′:6,7]cyclohepta[1,2-f]indole-3-carboxylic acid hydrochloride] | < 1 µg/mL | 3.5 to 12.5 µg/mL | < 1 µg/mL |
| CC(C)CNCc1cc2cc3c(cc2n1C)CCCc1c-3[nH]c(=O)c(C(=O)O)c1O.Cl [Cpd 154, 4-hydroxy-10-((isobutylamino)methyl)-9-methyl-2-oxo-1,2,5,6,7,9-hexahydropyrido[3′,2′:6,7]cyclohepta[1,2-f]indole-3-carboxylic acid hydrochloride] | < 1 µg/mL | 3.5 to 12.5 µg/mL | < 1 µg/mL |
| Cl.Cn1c(CNCC(C)(C)C)cc2cc3c(cc21)CCCc1c-3[nH]c(=O)c(C(=O)O)c1O [Cpd 155, 4-hydroxy-9-methyl-10-((neopentylamino)methyl)-2-oxo-1,2,5,6,7,9-hexahydropyrido[3′,2′:6,7]cyclohepta[1,2-f]indole-3-carboxylic acid hydrochloride] | 1 to 3.5 µg/mL | 3.5 to 12.5 µg/mL | < 1 µg/mL |
| CN1CCCN(Cc2cc3cc4c(cc3n2C)CCCc2c-4[nH]c(=O)c(C(=O)O)c2O)CC1.Cl.Cl [Cpd 156, 4-hydroxy-9-methyl-10-((4-methyl-1,4-diazepan-1-yl)methyl)-2-oxo-1,2,5,6,7,9-hexahydropyrido[3′,2′:6,7]cyclohepta[1,2-f]indole-3-carboxylic acid dihydrochloride] | 3.5 to 12.5 µg/mL | 12.5 to 150 µg/mL | < 1 µg/mL |
| CN1CCC(NCc2cc3cc4c(cc3n2C)CCCc2c-4[nH]c(=O)c(C(=O)O)c2O)CC1.Cl.Cl [Cpd 157, 4-hydroxy-9-methyl-10-(((1-methylpiperidin-4-yl)amino)methyl)-2-oxo-1,2,5,6,7,9-hexahydropyrido[3′,2′:6,7]cyclohepta[1,2-f]indole-3-carboxylic acid dihydrochloride] | 1 to 3.5 µg/mL | 12.5 to 150 µg/mL | < 1 µg/mL |
| COC1CCN(Cc2cc3cc4c(cc3n2C)CCCc2c-4[nH]c(=O)c(C(=O)O)c2O)C1.Cl (stereo not drawn) [Cpd 158, 4-hydroxy-10-((3-methoxypyrrolidin-1-yl)methyl)-9-methyl-2-oxo-1,2,5,6,7,9-hexahydropyrido[3′,2′:6,7]cyclohepta[1,2-f]indole-3-carboxylic acid hydrochloride] | 1 to 3.5 µg/mL | 3.5 to 12.5 µg/mL | < 1 µg/mL |
| CC(=O)NC1CCN(Cc2cc3cc4c(cc3n2C)CCCc2c-4[nH]c(=O)c(C(=O)O)c2O)C1.Cl (stereo not drawn) [Cpd 159, 10-((3-acetamidopyrrolidin-1-yl)methyl)-4-hydroxy-9-methyl-2-oxo-1,2,5,6,7,9-hexahydropyrido[3′,2′:6,7]cyclohepta[1,2-f]indole-3-carboxylic acid hydrochloride] | 3.5 to 12.5 µg/mL | 12.5 to 150 µg/mL | < 1 µg/mL |
| CC(CN(C)C)NCc1cc2cc3c(cc2n1C)CCCc1c-3[nH]c(=O)c(C(=O)O)c1O.Cl.Cl (stereo not drawn) [Cpd 160, 10-(((1-(dimethylamino)propan-2-yl)amino)methyl)-4-hydroxy-9-methyl-2-oxo-1,2,5,6,7,9-hexahydropyrido[3′,2′:6,7]cyclohepta[1,2-f]indole-3-carboxylic acid dihydrochloride] | 3.5 to 12.5 µg/mL | 12.5 to 150 µg/mL | < 1 µg/mL |
| Cl.Cn1c(CNCC2CCCO2)cc2cc3c(cc21)CCCc1c-3[nH]c(=O)c(C(=O)O)c1O (stereo not drawn) [Cpd 161, 4-hydroxy-9-methyl-2-oxo-10-((((tetrahydrofuran-2-yl)methyl)amino)methyl)-1,2,5,6,7,9-hexahydropyrido[3′,2′:6,7]cyclohepta[1,2-f]indole-3-carboxylic acid hydrochloride] | 1 to 3.5 µg/mL | 12.5 to 150 µg/mL | < 1 µg/mL |
| CN1CCC2CN(Cc3cc4cc5c(cc4n3C)CCCc3c-5[nH]c(=O)c(C(=O)O)c3O)CC21.Cl.Cl (stereo not drawn) [Cpd 162, 4-hydroxy-9-methyl-10-((1-methylhexahydropyrrolo[3,4-b]pyrrol-5(1H)-yl)methyl)-2-oxo-1,2,5,6,7,9-hexahydropyrido[3′,2′:6,7]cyclohepta[1,2-f]indole-3-carboxylic acid dihydrochloride] | 3.5 to 12.5 µg/mL | 12.5 to 150 µg/mL | < 1 µg/mL |
